Results: article doi:10.1101/2021.04.08.439011v1 (biorxiv, 2021)
Where two headings read alike, the source gives them in different places.

Experiments:
PKNB (M. tuberculosis) = PKNB (M. tuberculosis) (Mycobacterium tuberculosis, UniProt P9WI81); settings: 1 µM; binder
LTK [1] = target: T1, LTK (Homo sapiens, UniProt P29376); test: biochemical; settings: read-out: Percent Control
DYRK1B [2] = target: T2, DYRK1B (Homo sapiens, UniProt Q9Y463); test: biochemical; settings: read-out: Percent Control
PFPK5(P. falciparum) [3] = target: T3, PFPK5(P. falciparum) (Plasmodium falciparum, UniProt P61075); settings: 0.1 µM; binder
LTK [4] = target: T1, LTK; test: biochemical; settings: read-out: Percent Control; remark: listed apart in the source
STK33 = STK33 (Homo sapiens, UniProt Q9BYT3); test: biochemical; settings: read-out: Percent Control
DYRK1B [5] = target: T2, DYRK1B; test: biochemical; settings: read-out: Percent Control; remark: listed apart in the source
PFPK5(P. falciparum) [6] = target: T3, PFPK5(P. falciparum); settings: 1 µM; binder
[7] = target: TYK2(JH2domain-pseudokinase) (Homo sapiens, UniProt P29597); settings: 0.1 µM; binder
[8] = target: RSK1(Kin.Dom.2-C-terminal) (Homo sapiens, UniProt Q15418); settings: 0.1 µM; binder
[9] = target: RSK1(Kin.Dom.1-N-terminal) (Homo sapiens, UniProt Q15418); settings: 0.1 µM; binder
[10] = target: RSK2(Kin.Dom.1-N-terminal) (Homo sapiens, UniProt P51812); settings: 0.1 µM; binder
[11] = target: RSK3(Kin.Dom.1-N-terminal) (Homo sapiens, UniProt Q15349); settings: 0.1 µM; binder
[12] = target: RSK3(Kin.Dom.2-C-terminal) (Homo sapiens, UniProt Q15349); settings: 0.1 µM; binder
Sequence of RSK3(Kin.Dom.2-C-terminal) (Q15349 whole entry): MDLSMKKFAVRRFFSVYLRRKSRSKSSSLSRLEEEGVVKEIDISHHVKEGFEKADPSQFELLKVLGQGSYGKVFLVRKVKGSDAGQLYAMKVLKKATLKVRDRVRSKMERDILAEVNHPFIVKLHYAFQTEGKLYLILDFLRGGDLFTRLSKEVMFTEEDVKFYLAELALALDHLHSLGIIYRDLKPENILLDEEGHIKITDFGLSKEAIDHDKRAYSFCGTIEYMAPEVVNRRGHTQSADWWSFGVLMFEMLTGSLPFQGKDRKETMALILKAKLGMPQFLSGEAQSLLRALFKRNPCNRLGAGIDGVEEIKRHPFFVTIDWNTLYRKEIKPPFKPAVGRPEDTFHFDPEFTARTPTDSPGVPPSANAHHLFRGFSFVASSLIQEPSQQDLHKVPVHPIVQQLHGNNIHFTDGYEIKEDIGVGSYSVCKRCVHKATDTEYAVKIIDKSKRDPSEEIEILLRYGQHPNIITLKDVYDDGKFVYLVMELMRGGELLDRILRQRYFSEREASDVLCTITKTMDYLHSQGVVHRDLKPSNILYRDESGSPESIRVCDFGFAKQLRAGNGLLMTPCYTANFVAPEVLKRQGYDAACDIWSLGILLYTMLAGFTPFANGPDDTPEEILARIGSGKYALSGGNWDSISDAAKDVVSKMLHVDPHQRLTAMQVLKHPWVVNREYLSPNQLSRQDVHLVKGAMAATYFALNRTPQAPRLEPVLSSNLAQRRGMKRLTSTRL

T2 sequence (Q9Y463 whole entry): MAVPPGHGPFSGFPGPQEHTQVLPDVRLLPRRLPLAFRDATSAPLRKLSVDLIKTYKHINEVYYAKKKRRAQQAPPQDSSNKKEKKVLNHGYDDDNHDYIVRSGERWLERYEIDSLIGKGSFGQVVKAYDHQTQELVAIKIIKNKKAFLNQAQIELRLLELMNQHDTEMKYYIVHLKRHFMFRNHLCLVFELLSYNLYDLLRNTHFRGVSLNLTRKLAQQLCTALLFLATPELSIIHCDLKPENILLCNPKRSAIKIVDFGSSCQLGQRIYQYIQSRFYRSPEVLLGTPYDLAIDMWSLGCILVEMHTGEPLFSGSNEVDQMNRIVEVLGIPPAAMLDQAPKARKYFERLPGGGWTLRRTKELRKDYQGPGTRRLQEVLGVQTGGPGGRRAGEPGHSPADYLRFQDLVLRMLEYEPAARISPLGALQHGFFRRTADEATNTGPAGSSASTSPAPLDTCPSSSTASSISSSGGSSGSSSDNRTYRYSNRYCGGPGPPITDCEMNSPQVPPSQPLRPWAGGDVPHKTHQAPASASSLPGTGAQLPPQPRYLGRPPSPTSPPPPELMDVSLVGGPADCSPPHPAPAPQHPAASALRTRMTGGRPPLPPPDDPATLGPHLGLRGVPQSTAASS
T1 sequence (P29376 whole entry): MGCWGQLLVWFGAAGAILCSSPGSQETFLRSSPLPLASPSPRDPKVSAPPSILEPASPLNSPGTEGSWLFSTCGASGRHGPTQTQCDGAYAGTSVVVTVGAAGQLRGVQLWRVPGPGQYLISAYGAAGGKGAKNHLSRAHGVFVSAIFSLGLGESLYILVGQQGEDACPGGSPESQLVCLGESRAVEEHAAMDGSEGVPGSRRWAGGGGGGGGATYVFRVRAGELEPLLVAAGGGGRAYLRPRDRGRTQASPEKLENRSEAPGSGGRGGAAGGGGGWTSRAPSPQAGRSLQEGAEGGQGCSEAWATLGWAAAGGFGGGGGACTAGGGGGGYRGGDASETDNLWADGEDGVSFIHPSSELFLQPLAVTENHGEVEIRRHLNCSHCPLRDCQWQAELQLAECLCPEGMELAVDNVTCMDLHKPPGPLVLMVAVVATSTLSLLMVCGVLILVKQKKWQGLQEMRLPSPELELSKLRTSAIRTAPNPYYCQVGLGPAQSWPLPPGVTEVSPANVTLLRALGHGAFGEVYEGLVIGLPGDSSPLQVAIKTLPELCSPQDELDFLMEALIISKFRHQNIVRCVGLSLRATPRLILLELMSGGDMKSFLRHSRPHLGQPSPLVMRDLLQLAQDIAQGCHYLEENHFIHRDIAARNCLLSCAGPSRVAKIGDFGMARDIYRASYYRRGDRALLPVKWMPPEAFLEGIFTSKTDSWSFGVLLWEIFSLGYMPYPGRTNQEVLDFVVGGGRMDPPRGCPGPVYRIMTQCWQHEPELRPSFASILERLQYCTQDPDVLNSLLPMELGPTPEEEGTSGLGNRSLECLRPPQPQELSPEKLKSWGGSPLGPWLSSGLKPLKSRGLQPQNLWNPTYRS
T3 sequence (P61075 whole entry): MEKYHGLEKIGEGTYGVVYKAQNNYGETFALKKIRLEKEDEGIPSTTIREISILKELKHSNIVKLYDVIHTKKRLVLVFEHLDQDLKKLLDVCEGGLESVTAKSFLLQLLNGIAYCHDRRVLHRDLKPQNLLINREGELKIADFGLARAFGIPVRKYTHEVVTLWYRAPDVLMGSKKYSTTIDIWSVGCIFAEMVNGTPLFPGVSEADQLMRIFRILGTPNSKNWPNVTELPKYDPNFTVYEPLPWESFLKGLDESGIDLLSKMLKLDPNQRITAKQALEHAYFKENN
Sequence of PKNB (M. tuberculosis) (P9WI81 whole entry): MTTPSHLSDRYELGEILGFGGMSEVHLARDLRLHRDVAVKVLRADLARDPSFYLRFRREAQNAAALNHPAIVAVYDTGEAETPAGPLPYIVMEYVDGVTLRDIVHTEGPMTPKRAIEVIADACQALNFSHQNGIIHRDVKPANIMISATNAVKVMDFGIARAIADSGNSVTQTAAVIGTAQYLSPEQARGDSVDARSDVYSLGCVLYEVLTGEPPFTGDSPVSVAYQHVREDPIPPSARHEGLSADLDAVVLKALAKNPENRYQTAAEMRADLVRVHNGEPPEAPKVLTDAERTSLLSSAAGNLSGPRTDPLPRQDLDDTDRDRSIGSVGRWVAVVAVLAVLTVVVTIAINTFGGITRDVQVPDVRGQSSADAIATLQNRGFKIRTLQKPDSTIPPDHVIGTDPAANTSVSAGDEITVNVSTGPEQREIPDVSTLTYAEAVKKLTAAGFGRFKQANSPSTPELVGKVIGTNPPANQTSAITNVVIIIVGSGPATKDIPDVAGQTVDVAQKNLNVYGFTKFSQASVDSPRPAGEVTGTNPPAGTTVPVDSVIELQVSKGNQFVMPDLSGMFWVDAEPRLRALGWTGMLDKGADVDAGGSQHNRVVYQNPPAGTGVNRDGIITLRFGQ
Sequence of STK33 (Q9BYT3 whole entry): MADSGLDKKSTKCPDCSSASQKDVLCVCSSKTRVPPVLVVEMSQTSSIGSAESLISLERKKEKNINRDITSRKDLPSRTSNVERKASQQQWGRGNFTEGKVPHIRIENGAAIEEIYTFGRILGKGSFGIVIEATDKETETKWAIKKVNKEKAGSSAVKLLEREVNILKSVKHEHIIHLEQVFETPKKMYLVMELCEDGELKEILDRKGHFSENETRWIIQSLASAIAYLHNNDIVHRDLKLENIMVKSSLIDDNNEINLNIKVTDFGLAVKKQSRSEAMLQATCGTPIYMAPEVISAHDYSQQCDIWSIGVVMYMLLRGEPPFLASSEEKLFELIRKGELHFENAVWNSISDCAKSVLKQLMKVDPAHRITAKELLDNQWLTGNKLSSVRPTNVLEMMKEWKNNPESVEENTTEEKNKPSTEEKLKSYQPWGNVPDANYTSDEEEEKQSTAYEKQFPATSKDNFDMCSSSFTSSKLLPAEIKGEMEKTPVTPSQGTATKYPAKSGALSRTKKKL
Sequence of RSK3(Kin.Dom.1-N-terminal) (Q15349 whole entry): as the sequence (Q15349 whole entry) above
Sequence of RSK2(Kin.Dom.1-N-terminal) (P51812 whole entry): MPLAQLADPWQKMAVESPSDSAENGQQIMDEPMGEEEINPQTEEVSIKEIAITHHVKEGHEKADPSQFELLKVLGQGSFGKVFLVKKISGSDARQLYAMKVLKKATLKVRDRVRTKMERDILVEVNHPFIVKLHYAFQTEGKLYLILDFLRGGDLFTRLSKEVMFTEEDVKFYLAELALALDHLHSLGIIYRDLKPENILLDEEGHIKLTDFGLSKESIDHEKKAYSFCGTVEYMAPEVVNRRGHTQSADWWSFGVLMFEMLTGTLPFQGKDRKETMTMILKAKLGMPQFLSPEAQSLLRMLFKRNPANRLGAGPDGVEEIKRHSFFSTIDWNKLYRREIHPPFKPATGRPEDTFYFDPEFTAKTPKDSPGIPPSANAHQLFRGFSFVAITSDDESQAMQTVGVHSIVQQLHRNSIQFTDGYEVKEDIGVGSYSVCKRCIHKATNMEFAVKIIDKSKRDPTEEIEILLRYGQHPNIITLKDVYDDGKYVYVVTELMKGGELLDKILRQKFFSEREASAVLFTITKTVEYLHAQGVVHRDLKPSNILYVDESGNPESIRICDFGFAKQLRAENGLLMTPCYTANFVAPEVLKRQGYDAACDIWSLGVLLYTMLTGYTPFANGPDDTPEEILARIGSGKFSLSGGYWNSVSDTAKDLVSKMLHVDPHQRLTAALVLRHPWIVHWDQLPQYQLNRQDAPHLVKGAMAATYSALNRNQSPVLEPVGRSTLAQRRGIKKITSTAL

For CNc1ncc2cc(-c3ccc(-c4cccc(C)n4)cc3Cl)c(=O)n(C[C@H]3OC[C@H](N)CO3)c2n1 [compound 6, G-5555], which “Percent Control” value (PKNB (M. tuberculosis)) is on record?
Its value is 51%.

And the remaining activity at 0.1 µM (LTK [1])?
The remaining activity at 0.1 µM was 28%.

And the remaining activity at 0.1 µM (DYRK1B [2])?
Its remaining activity at 0.1 µM is 61%.

And the “Percent Control” value (PFPK5(P. falciparum) [3])?
Its value is 90%.

And the remaining activity at 1 µM (LTK [4])?
Its remaining activity at 1 µM is 4.1%.

And the remaining activity at 1 µM (STK33)?
The remaining activity at 1 µM was 75%.

What about the remaining activity at 1 µM (DYRK1B [5]) of the same molecule?
Its remaining activity at 1 µM is 49%.

What about the “Percent Control” value (PFPK5(P. falciparum) [6]) of the same molecule?
Its value is 100%.

And the “Percent Control” value [7]?
The value was 84%.

What about the “Percent Control” value [8] of the same molecule?
Its value is 100%.

And the “Percent Control” value [9]?
The value was 79%.

And the “Percent Control” value [10]?
Its value is 94%.

What about the “Percent Control” value [11] of the same molecule?
Its value is 100%.

What about the “Percent Control” value [12] of the same molecule?
Its value is 100%.
